The results in this text go back to patent US10519111B2, “UV absorbing compounds, compositions comprising same and uses thereof” (CORAL SUNSCREEN PTY LTD, priority 2013, dated 2019).

The data set is described as follows: UV absorption properties (λmax, molar extinction coefficient ε, efficiency E 1%, 1 cm). In kind it is physicochemical. The following applies: for ε (molar extinction coefficient): values in order of the λmax values.

On to `COc1ccc(N2C=C(C(=O)Cc3ccccc3)C(C)(C)CC2)cc1` [Compound 174, 1-(1-(4-methoxyphenyl)-4,4-dimethyl-1,4,5,6-tetrahydropyridin-3-yl)-2-phenylethanone], for which the “UV λmax” value is listed as 334 nm and the “ε (molar extinction coefficient)” value came to 33786 M⁻¹ cm⁻¹.

`CCCCCCCC(=O)C1=CN(c2ccc(N(C)C)cc2)CCC1(C)C` [Compound 175, 1-(1-(4-(dimethylamino)phenyl)-4,4-dimethyl-1,4,5,6-tetrahydropyridin-3-yl)octan-1-one]: the “UV λmax” value was found to be 338 nm and the “ε (molar extinction coefficient)” value worked out at 28040 M⁻¹ cm⁻¹.

`CCC(=O)C1=CN(c2ccc(C)cc2)CCC1(C)C` [Compound 176, 1-(4,4-dimethyl-1-(p-tolyl)-1,4,5,6-tetrahydropyridin-3-yl)propan-1-one]: the “UV λmax” value is recorded as 327 nm and the “ε (molar extinction coefficient)” value came to 34608 M⁻¹ cm⁻¹.

In the case of `CCC(=O)C1=CN(c2ccc(C(C)(C)C)cc2)CCC1(C)C` [Compound 177, 1-(1-(4-(tert-butyl)phenyl)-4,4-dimethyl-1,4,5,6-tetrahydropyridin-3-yl)propan-1-one], the “UV λmax” value was 329 nm and the “ε (molar extinction coefficient)” value amounted to 31955 M⁻¹ cm⁻¹.

In the case of `CCC(=O)C1=CN(c2cccc3ccccc23)CCC1(C)C` [Compound 178, 1-(4,4-dimethyl-1-(naphthalen-1-yl)-1,4,5,6-tetrahydropyridin-3-yl)propan-1-one], the “UV λmax” value came out at 321 nm and the “ε (molar extinction coefficient)” value came to 23247 M⁻¹ cm⁻¹.

Regarding `CC1(C)CCN(C(C)(C)C)C=C1C(=O)Nc1ccccc1` [Compound 179, 1-(tert-butyl)-4,4-dimethyl-N-phenyl-1,4,5,6-tetrahydropyridine-3-carboxamide], the “UV λmax” value was 308 nm and the “ε (molar extinction coefficient)” value came to 34834 M⁻¹ cm⁻¹. Further, the ε value (unit inferred) amounted to 35000 M⁻¹ cm⁻¹.

As for `CN(C(=O)C1=CN(C(C)(C)C)CCC1(C)C)c1ccccc1` [Compound 180, 1-(tert-butyl)-N,4,4-trimethyl-N-phenyl-1,4,5,6-tetrahydropyridine-3-carboxamide], the “UV λmax” value amounted to 312 nm and the “ε (molar extinction coefficient)” value came out at 15174 M⁻¹ cm⁻¹.

Turning to `CC1(C)CCN(C(C)(C)C)C=C1C(=O)NCCCCCCNC(=O)C1=CN(C(C)(C)C)CCC1(C)C` [Compound 181, N,N′-(hexane-1,6-diyl)bis(1-(tert-butyl)-4,4-dimethyl-1,4,5,6-tetrahydropyridine-3-carboxamide)], the “UV λmax” value was 289 nm and the “ε (molar extinction coefficient)” value was 31072 M⁻¹ cm⁻¹.

On to `CC1(C)CCN(C(C)(C)C)C=C1C(=S)Nc1ccccc1` [Compound 182, 1-(tert-butyl)-4,4-dimethyl-N-phenyl-1,4,5,6-tetrahydropyridine-3-carbothioamide], for which the “UV λmax” value is 363 nm and the “ε (molar extinction coefficient)” value was determined as 20881 M⁻¹ cm⁻¹.

With `CCCCNC(=O)C1=CN(C(C)(C)C)CCC1(C)C` [Compound 183, 1-(tert-butyl)-N-butyl-4,4-dimethyl-1,4,5,6-tetrahydropyridine-3-carboxamide], the “UV λmax” value came out at 288 nm and the “ε (molar extinction coefficient)” value came to 22531 M⁻¹ cm⁻¹.

On to `Cc1ccc(NC(=O)C2=CN(C(C)(C)C)CCC2(C)C)cc1NC(=O)C1=CN(C(C)(C)C)CCC1(C)C` [Compound 184, N,N′-(4-methyl-1,3-phenylene)bis(1-(tert-butyl)-4,4-dimethyl-1,4,5,6-tetrahydropyridine-3-carboxamide)], for which the “UV λmax” value was determined as 308 nm.

With `CC1(C)CCN(C(C)(C)C)C=C1C(=O)Nc1ccc(Cc2ccc(NC(=O)C3=CN(C(C)(C)C)CCC3(C)C)cc2)cc1` [Compound 185, N,N′-(methylenebis(4,1-phenylene))bis(1-(tert-butyl)-4,4-dimethyl-1,4,5,6-tetrahydropyridine-3-carboxamide)], the “UV λmax” value is on record as 310 nm and the “ε (molar extinction coefficient)” value came out at 64589 M⁻¹ cm⁻¹.
